Tests used:
[1] = biological target: T1, panel of 442 kinases (Homo sapiens, UniProt O60331); assay type: binding; settings: Compound Concentration 10 µM
T1 construct: purchased KINOMEscan
Source text: (§1) We assessed the selectivity of members of this scaffold using the KINOMEscan methodology across a near comprehensive panel of 442 kinases [[18,27]].

[2] = biological target: T2, panel of 442 kinases (Homo sapiens, UniProt P10721, A829P); assay type: binding; settings: Compound Concentration 10 µM
T2 construct: purchased KINOMEscan
T2 sequence (P10721 26-976 A829P): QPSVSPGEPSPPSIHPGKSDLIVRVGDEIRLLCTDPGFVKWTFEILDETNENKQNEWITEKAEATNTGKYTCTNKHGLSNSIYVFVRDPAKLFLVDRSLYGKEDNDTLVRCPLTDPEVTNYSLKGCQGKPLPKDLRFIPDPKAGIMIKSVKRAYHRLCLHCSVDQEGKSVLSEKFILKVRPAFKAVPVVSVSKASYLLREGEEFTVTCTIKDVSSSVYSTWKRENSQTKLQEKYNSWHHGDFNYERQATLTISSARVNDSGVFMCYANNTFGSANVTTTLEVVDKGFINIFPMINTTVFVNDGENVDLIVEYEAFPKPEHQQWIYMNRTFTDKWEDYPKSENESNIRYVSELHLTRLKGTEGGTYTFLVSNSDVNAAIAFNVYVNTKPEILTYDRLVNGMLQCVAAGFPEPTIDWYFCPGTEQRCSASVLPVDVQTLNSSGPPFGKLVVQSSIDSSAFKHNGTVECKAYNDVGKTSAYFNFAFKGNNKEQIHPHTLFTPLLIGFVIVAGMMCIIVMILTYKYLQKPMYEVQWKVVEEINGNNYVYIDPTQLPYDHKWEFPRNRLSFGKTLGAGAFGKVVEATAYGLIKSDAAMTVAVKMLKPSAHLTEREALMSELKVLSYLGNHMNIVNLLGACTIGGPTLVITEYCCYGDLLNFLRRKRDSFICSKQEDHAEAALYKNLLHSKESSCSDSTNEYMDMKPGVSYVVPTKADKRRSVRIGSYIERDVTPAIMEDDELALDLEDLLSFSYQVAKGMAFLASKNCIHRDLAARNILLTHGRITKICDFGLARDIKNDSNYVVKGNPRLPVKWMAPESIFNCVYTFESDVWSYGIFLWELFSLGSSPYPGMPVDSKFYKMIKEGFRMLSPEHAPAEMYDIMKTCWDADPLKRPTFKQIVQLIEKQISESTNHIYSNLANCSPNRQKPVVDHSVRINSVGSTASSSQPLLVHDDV
Source text: as §1

T1 sequence (O60331 whole entry): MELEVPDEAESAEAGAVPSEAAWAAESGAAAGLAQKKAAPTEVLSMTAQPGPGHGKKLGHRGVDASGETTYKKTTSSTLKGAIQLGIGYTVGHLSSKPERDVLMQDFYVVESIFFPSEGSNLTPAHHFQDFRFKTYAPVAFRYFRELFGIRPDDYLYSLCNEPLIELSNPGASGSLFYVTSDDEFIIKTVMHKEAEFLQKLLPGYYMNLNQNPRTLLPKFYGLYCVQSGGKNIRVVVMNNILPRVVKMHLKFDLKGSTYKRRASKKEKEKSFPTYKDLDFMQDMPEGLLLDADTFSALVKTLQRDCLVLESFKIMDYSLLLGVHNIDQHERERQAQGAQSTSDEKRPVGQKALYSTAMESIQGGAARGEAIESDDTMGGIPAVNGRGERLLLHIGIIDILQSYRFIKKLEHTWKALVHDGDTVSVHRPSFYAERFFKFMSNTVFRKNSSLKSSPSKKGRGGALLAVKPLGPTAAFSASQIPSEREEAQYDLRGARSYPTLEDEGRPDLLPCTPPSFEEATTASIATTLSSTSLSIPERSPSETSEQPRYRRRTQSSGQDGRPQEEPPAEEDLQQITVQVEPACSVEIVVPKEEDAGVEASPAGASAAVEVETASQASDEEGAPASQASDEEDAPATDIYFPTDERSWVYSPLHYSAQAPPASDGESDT

Row | Structure (SMILES) | KINOMEscan: PIP5K1C [1] | KINOMEscan: KIT(A829P) [2]
1 | COc1cc(C(=O)N2CCC(N3CCN(C)CC3)CC2)ccc1Nc1ncc2c(n1)N(C1CCCC1)c1ccccc1C(=O)N2C [Compound 25, 11-cyclopentyl-2-((2-methoxy-4-(4-(4-methylpiperazin-1-yl)piperidine-1-carbonyl)phenyl)amino)-5-methyl-5H-benzo[e]pyrimido[5,4-b][1,4]diazepin-6(11H)-one] | 100 | 95
2 | CCOc1cc(C(=O)N2CCC(N3CCN(C)CC3)CC2)ccc1Nc1ncc2c(n1)N(C1CCCC1)c1ccccc1C(=O)N2C [Compound 26] | 100 | 74
3 | COc1cc(C(=O)N2CCC(N3CCN(C)CC3)CC2)ccc1Nc1ncc2c(n1)N1CCc3cccc(c31)C(=O)N2C [Compound 24] | 6.3 | –
4 | COc1cc(C(=O)N2CCC(N3CCN(C)CC3)CC2)ccc1Nc1ncc2c(n1)N(C)c1ccccc1C(=O)N2C [15 (LRRK2-IN-1)] | 96 | 100

Reference: paper PMC3914206
